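At the GI50, growth is halved. TGI denotes the concentration required for complete inhibition of growth.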
What was measured:
Test in all cases: NCI tumour cell line growth inhibition, 384-well format
[1] = system: 786-0 renal
[2] = system: A498 renal
[3] = system: ACHN renal
[4] = system: BT-549 breast
[5] = system: CAKI-1 renal
[6] = system: CCRF-CEM leukemia
[7] = system: DU-145 prostate
[8] = system: HCC-2998 colon
[9] = system: HCT-116 colon
[10] = system: HCT-15 colon
[11] = system: HL-60(TB) leukemia
[12] = system: HOP-92 NSCLC
[13] = system: HS 578T breast
[14] = system: HT29 colon
[15] = system: IGROV1 ovarian
[16] = system: KM12 colon
[17] = system: M14 melanoma
[18] = system: MALME-3M melanoma
[19] = system: MCF7 breast
[20] = system: MDA-MB-468 breast
[21] = system: MOLT-4 leukemia
[22] = system: NCI-H226 lung
[23] = system: NCI-H23 lung
[24] = system: NCI-H322M lung
[25] = system: NCI-H460 NSCLC
[26] = system: NCI-H522 lung
[27] = system: NCI/ADR-RES ovarian
[28] = system: OVCAR-3 ovarian
[29] = system: OVCAR-4 ovarian
[30] = system: OVCAR-5 ovarian
[31] = system: OVCAR-8 ovarian
[32] = system: PC-3 prostate
[33] = system: RPMI-8226 leukemia
[34] = system: RXF 393 renal
[35] = system: SF-295 CNS
[36] = system: SF-539 CNS
[37] = system: SK-MEL-2 melanoma
[38] = system: SK-MEL-28 melanoma
[39] = system: SK-MEL-5 melanoma
[40] = system: SK-OV-3 ovarian
[41] = system: SNB-19 CNS
[42] = system: SNB-75 CNS
[43] = system: SW-620 colon
[44] = system: T-47D breast
[45] = system: U251 glioblastoma
[46] = system: UACC-257 melanoma
[47] = system: UO-31 renal

With `NC1(c2ccc(-c3nc4ccn5c(=O)[nH]nc5c4cc3-c3ccccc3)cc2)CCC1` the GI50 [1] was 1070 nM, the TGI [1] was 2320 nM and the GI50 [2] was 134 nM. For the same molecule, the TGI [2] was 1190 nM, the GI50 [3] was 1290 nM and the TGI [3] was 5450 nM. The GI50 [4] was 875 nM, the TGI [4] was 2520 nM and the GI50 [5] was 883 nM. The TGI [5] was 2600 nM, the GI50 [6] was 127 nM and the TGI [6] was 1160 nM. The GI50 [7] was 5780 nM, the TGI [7] was 17400 nM and the GI50 [8] was 1390 nM. The TGI [8] was 2780 nM, the GI50 [9] was 1520 nM and the TGI [9] was 2960 nM. For the same molecule, the GI50 [10] was 1400 nM, the TGI [10] was 2780 nM and the GI50 [11] was 1920 nM. It also gave a TGI [11] of 3360 nM, a GI50 [12] of 1160 nM and a TGI [12] of 2660 nM. The GI50 [13] was 704 nM, the TGI [13] was 2170 nM and the GI50 [14] was 1290 nM. It also gave a TGI [14] of 2690 nM, a GI50 [15] of 188 nM and a TGI [15] of 2390 nM. The GI50 [16] was 2320 nM, the TGI [16] was 7070 nM and the GI50 [17] was 1440 nM. It also gave a TGI [17] of 2770 nM, a GI50 [18] of 683 nM and a TGI [18] of 2210 nM. The GI50 [19] was 135 nM, the TGI [19] was 1720 nM and the GI50 [20] was 48.3 nM. It also gave a TGI [20] of 514 nM, a GI50 [21] of 131 nM and a TGI [21] of 632 nM. For the same molecule, the GI50 [22] was 2080 nM, the TGI [22] was 7360 nM and the GI50 [23] was 2490 nM. The TGI [23] was 7480 nM, the GI50 [24] was 2440 nM and the TGI [24] was 10200 nM. For the same molecule, the GI50 [25] was 463 nM, the TGI [25] was 2860 nM and the GI50 [26] was 2390 nM. It also gave a TGI [26] of 6500 nM, a GI50 [27] of 3180 nM and a TGI [27] of 12100 nM. For the same molecule, the GI50 [28] was 859 nM, the TGI [28] was 4780 nM and the GI50 [29] was 2790 nM. The TGI [29] was 7480 nM, the GI50 [30] was 2130 nM and the TGI [30] was 7160 nM. It also gave a GI50 [31] of 1760 nM, a TGI [31] of 3960 nM and a GI50 [32] of 139 nM. For the same molecule, the TGI [32] was 3210 nM, the GI50 [33] was 1480 nM and the TGI [33] was 3240 nM. For the same molecule, the GI50 [34] was 863 nM, the TGI [34] was 2230 nM and the GI50 [35] was 1340 nM. For the same molecule, the TGI [35] was 2720 nM, the GI50 [36] was 815 nM and the TGI [36] was 2080 nM. For the same molecule, the GI50 [37] was 1590 nM, the TGI [37] was 2950 nM and the GI50 [38] was 1200 nM. It also gave a TGI [38] of 2500 nM, a GI50 [39] of 777 nM and a TGI [39] of 1930 nM. It also gave a GI50 [40] of 763 nM, a TGI [40] of 2300 nM and a GI50 [41] of 2550 nM. For the same molecule, the TGI [41] was 7450 nM, the GI50 [42] was 239 nM and the TGI [42] was 1780 nM. For the same molecule, the GI50 [43] was 4690 nM, the TGI [43] was 8900 nM and the GI50 [44] was 27.2 nM. The TGI [44] was 629 nM, the GI50 [45] was 1860 nM and the TGI [45] was 4530 nM. It also gave a GI50 [46] of 1540 nM, a TGI [46] of 2890 nM and a GI50 [47] of 2200 nM. The TGI [47] was 6720 nM.
